Like-named read-outs stand apart in the source and are kept apart here.
Tests used:
[1] = biological target: TcdB GTD domain (amino acids 1 to 543) (Clostridioides difficile, UniProt P18177); assay type: biochemical, Clostridium difficile
[2] = biological target: TcdB CPD domain (Clostridioides difficile, UniProt P18177); assay: competition labeling assay with TAMRA–AWP-19; assay type: biochemical, Clostridium difficile; details: IP6-activated CPD, TAMRA–AWP-19 labeling
[3] = test system: C. difficile strain 630; assay: mouse C. difficile infection model; assay type: in vivo; details: for histopathological score, dose-response study: 5-day treatment
[4] = biological target: full-length TcdA (Clostridioides difficile, UniProt P16154); assay: IP6-induced autoprocessing / TAMRA–AWP-19 labeling of full-length TcdA; assay type: biochemical, Clostridium difficile
[5] = biological target: full-length TcdB (Clostridioides difficile, UniProt P18177); assay type: biochemical, Clostridium difficile
Chain of full-length TcdB (P18177 whole entry): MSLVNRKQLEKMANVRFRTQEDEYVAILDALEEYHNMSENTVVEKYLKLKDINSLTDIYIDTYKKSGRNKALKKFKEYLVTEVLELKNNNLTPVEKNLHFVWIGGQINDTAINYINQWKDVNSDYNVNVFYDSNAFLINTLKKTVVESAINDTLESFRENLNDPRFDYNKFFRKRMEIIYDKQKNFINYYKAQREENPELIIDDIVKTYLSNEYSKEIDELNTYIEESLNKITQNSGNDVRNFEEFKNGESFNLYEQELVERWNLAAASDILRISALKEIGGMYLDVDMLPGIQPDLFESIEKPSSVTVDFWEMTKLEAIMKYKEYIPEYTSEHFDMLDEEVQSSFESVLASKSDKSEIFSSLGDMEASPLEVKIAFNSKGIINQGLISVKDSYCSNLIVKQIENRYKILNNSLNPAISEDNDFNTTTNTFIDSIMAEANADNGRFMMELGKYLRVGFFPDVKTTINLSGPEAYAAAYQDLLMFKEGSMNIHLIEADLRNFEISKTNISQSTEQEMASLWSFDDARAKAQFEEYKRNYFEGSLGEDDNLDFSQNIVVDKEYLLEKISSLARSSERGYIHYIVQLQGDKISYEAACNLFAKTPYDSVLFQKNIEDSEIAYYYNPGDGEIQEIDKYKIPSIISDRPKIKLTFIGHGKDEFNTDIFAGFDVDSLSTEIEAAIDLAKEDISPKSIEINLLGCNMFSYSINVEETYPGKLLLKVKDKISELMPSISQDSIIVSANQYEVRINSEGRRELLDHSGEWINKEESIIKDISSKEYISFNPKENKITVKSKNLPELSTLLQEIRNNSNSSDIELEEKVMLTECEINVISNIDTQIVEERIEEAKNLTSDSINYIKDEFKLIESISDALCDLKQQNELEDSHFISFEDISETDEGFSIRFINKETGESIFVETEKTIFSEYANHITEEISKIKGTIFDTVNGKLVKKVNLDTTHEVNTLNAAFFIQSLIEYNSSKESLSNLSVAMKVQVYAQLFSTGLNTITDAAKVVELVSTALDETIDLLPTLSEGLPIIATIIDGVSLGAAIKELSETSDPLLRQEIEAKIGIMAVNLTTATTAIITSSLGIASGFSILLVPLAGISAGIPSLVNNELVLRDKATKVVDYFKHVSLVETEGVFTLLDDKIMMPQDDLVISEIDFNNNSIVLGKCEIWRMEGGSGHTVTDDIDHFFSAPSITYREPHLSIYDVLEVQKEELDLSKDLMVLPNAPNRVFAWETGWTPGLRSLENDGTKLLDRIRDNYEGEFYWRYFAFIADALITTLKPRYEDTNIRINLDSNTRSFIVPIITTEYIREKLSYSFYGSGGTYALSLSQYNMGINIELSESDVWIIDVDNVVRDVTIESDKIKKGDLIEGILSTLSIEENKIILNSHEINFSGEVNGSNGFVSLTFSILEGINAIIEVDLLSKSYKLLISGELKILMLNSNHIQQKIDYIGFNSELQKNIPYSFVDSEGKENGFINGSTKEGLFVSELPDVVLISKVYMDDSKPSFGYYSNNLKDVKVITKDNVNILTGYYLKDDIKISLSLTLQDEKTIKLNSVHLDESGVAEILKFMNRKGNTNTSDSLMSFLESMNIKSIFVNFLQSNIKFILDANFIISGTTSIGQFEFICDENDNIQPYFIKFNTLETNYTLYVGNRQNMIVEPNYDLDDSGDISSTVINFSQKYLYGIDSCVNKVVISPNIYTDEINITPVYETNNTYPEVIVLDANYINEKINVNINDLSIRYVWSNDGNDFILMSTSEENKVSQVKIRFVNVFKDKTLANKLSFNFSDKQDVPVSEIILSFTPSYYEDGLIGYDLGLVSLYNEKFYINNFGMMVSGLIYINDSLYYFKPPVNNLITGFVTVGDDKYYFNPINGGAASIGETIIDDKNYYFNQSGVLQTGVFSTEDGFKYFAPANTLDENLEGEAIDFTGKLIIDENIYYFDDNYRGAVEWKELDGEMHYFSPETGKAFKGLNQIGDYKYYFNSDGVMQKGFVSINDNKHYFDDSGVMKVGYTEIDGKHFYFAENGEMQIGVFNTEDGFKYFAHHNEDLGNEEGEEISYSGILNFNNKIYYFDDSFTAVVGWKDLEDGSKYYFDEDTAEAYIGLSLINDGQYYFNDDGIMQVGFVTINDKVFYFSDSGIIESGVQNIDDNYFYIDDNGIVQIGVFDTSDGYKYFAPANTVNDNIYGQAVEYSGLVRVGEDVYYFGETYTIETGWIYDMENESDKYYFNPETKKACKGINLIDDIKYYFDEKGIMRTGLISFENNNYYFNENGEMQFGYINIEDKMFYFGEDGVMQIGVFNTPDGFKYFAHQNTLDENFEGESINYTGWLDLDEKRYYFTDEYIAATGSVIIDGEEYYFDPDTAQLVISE

[6] = biological target: TcdB (Clostridioides difficile, UniProt P18177); assay: murine systemic intoxication; assay type: in vivo, mouse; details: mice, TcdB 1.0 µg/kg i.p. pretreated with 100 nM ebselen
[7] = test system: TcdB-induced cell rounding, human foreskin fibroblast (HFF) cells; assay: cells; assay type: cell-based; details: for EC50: Homo sapiens, HFF
[8] = test system: large clostridial toxins (TcdA and TcdB) in patient stool sample, cell rounding; assay: cells; assay type: cell-based; details: Homo sapiens, read-out: EC50 for inhibition of toxin-induced cytopathology
[9] = 100 mg/kg daily oral gavage, day 5, vs vehicle

Chain of TcdB CPD domain (P18177 544-799 limits assumed): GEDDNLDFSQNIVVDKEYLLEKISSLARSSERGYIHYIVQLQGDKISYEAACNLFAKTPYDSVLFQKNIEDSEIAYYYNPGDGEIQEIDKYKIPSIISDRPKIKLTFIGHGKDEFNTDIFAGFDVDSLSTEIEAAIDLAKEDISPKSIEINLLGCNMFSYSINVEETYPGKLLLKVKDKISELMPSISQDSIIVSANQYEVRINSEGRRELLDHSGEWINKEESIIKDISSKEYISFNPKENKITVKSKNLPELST
Chain of TcdB GTD domain (amino acids 1 to 543) (P18177 1-543): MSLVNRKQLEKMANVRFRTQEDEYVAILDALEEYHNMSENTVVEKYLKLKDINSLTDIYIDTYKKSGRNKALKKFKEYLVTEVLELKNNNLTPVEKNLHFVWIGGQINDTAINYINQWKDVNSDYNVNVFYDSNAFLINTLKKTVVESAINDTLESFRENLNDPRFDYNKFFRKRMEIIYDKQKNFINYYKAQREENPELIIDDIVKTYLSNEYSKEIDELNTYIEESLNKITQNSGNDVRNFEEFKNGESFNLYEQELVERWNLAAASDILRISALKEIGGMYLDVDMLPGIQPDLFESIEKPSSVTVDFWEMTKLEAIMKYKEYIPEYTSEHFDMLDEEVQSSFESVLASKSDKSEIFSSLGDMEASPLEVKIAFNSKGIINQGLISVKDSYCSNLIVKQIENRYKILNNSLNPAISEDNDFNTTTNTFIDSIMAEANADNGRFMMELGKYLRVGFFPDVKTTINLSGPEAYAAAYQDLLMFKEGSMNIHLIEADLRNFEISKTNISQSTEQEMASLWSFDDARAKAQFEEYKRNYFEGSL

O=c1c2ccccc2[se]n1-c1ccccc1 [ebselen, 2-phenyl-1,2-benzoselenazol-3-one]
inhibition of glucosyltransferase activity of the GTD domain [1]: did not show any inhibition
inhibition of IP6-induced labeling of the CPD active-site cysteine [2]: low nanomolar concentrations
histopathological score, dose-response study ([3]; 1 mg/kg daily): no improvement in histopathological score
histopathological score, dose-response study ([3]; 10 mg/kg daily): partial response
C. difficile CFU counts in feces ([3]; 100 mg/kg daily oral gavage, 5-day experiment): did not significantly affect
histopathological scores for cell infiltration, submucosal edema, and mucosal hypertrophy [3, 9]: significantly lower
overall histopathological (clinical) score [3, 9]: statistically significant drop in clinical score
cell rounding activity of shed toxin in feces (quantity of feces required to induce 50% cell rounding) ([3]; 100 mg/kg daily oral gavage, day 5 after infection): reduction in cell rounding activity of shed toxin
cleaved form of GTD in colon tissues (Western blot) ([3]; 100 mg/kg daily oral gavage, vs vehicle): reduced the amount of the cleaved form of GTD
histopathological score, dose-response study ([3]; 100 mg/kg daily): virtually complete response
inhibition of IP6-induced autoprocessing of full-length TcdA [4]: low nanomolar potency
concentration giving complete inhibition of IP6-induced release of the GTD [5]: 20 nM
inhibition of IP6-induced autoprocessing of full-length TcdB [5]: low nanomolar potency
clinical signs of toxin action (vital signs) [6]: no significant changes in vital signs
glucosylated Rac1 (Western blot, mAb102 nonglucosylated Rac1) [7]: decreased with increasing amounts of ebselen
protection against delayed toxicity of L543A noncleavable mutant TcdB [7]: showed further protection
EC50 ([7]; read-out: EC50 for blocking cell rounding): 20.5 nM
EC50 ([7]; read-out: EC50 for protection against cell rounding): 217 nM
EC50 [8]: 372 nM

Source: paper PMC6025901 (Science translational medicine, 2015)
